Earlier results on two compounds are cited in paper PMC2912446 (ACS chemical biology, 2010).

The series deals with GPR30. The conditions noted are these: read-out: GPR30 binding affinity; parent small molecules.

As to `Brc1cc2c(cc1[C@@H]1Nc3ccccc3[C@@H]3C=CC[C@@H]31)OCO2` [G15], the IC50 is […].

For `CC(=O)c1ccc2c(c1)[C@@H]1C=CC[C@@H]1[C@H](c1cc3c(cc1Br)OCO3)N2` [G-1], the IC50 was ~11 nM.
